Several values for one entry are separate records, joined by “and”; a condition that tells them apart may be missing. Identical values can stand only once. Like-named read-outs stand apart in the source and are kept apart here.
Assays:
[1] = target: T1, D2 receptors (Homo sapiens, UniProt P14416); assay: BRET2 beta-arrestin-2 recruitment assay at D2; type: cell-based; parameters: expressed in transfected cells; host or cells: HEK-293T
Protocol: (§1) BRET-2 signals were measured using the multiplate reader Mithras 940LB (Berthold Technologies, Bad Wildbad, Germany) and were calculated as the ratio between the Renilla luciferase emission and the GFP2 emission corrected by the background emissions of non-transfected cells.
Each curve is representative of two to three independent experiments.

[2] = target: T2, human 5-HT2A receptors (Homo sapiens, UniProt P28223); assay: Phosphatidyl inositol (PI) hydrolysis assay at 5-HT2A; type: cell-based; parameters: expressed in transfected cells
T2 sequence (P28223 whole entry): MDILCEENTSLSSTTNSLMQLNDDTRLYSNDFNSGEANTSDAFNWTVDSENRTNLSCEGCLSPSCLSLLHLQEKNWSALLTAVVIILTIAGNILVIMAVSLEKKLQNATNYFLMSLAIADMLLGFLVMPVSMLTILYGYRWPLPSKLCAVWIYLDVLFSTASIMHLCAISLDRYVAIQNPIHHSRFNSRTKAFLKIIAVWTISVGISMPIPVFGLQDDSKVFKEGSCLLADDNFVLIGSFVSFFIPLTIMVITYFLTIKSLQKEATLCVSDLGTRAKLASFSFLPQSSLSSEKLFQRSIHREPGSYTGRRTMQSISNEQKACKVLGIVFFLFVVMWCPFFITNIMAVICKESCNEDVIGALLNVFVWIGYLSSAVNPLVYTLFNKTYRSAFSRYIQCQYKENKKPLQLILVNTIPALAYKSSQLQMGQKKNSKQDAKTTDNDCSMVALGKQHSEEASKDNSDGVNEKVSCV
Protocol: After lysing the cells with 50 μl of 0.1M formic acid, 20 μl each cell lysate was mixed with 80 μl (1 mg) RNA Binding YSi-SPA beads (GE Healthcare, Chalfont St. Giles, UK) on PICO plates (PerkinElmer) and counted on a TopCount (Packard).
Each curve is representative of at least three or more independent experiments.

[3] = target: T1, D2 receptors; assay: R-SAT functional assay at D2; type: cell-based; parameters: expressed in transfected cells; host or cells: NIH-3T3
[4] = target: T2, human 5-HT2A receptors; assay: R-SAT functional assay at 5-HT2A; type: cell-based; parameters: expressed in transfected cells; host or cells: NIH-3T3; conditions: for EC50: read-out: R-SAT pEC50 (converted)
[5] = target: T1, D2 receptors; assay: GTPγS binding assay at D2; type: biochemical; parameters: expressed in transfected cells
Protocol: Cells were not centrifuged following cell scraping, but were collected directly into the ice-cold nitrogen cavitation chamber.
50 μl/well Wheat-Germ Agglutinin SPA beads (Perkin Elmer, Shelton, Conn.) were added to the plates and the plates incubated for 1 hour. The plates were then centrifuged at 1,000×g for 10 minutes and read on a Top Count NXT (Perkin Elmer, Shelton, Conn.).
To relate the results observed in R-SAT™ to a more conventional assay system, these ligands were also tested for the ability to induce GTPγS binding through D2 receptors.

[6] = target: T2, human 5-HT2A receptors; assay: BRET2 beta-arrestin-2 recruitment assay at 5-HT2A; type: cell-based; parameters: expressed in transfected cells; host or cells: HEK-293T
Protocol: as §1

[7] = target: T3, human H1 receptor (Homo sapiens, UniProt P35367); assay: R-SAT assay H1; type: cell-based; conditions: Table 3, H1; percent response of reference Histamine
T3 construct: expressed in transfected cells; host or cells: NIH/3T3
T3 sequence (P35367 whole entry): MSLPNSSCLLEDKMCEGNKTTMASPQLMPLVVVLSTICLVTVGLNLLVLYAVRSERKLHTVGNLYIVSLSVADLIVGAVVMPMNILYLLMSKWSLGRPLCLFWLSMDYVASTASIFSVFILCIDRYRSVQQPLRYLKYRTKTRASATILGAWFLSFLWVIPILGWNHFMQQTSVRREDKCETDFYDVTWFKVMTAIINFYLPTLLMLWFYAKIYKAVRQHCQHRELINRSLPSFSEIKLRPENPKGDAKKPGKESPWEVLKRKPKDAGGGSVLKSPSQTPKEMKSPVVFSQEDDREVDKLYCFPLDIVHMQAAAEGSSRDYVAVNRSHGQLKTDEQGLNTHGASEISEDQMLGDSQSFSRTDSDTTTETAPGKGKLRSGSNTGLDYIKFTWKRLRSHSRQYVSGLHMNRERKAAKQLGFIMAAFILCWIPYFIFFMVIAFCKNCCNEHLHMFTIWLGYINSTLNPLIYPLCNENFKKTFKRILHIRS

[8] = system: drug naive mice; assay: Head twitch induction in mice; type: in vivo; conditions: DOI 1 mg/kg ip, OSU6162 enantiomers 9.375-300 μmol/kg ip, 10 min before registration
Protocol: The animals used in the head twitch experiments were individually placed in Macrolon type II cages and allowed to habituate to these test cages during 30 minutes before the video registration of behavior began. […] The animals were videotaped for 10 minutes; the behavior was scored during the first 5 minutes. The number of head twitches was counted from the videotapes by a person blind to the treatment.
In FIG. 5, the number of head twitches produced during 5 minutes is shown. The mice were habituated to the test cages during 30 minutes before the video registration of behavior began. […] Shown are means and SEM, n=6-12.

[9] = system: reserpine-pretreated mice; assay: Motor activity in monoamine-depleted (reserpine-pretreated) mice, video tracking; conditions: for antagonism of motor stimulation induced by (+)-OSU6162 250 μmol/kg ip / antagonism of motor stimulation induced by (−)-OSU6162 250 μmol/kg ip: haloperidol 1 mg/kg ip, raclopride 20 mg/kg sc, M100907 1 mg/kg ip, SCH23390 0.3 mg/kg sc, SCH39166 0.1-0.9 mg/kg sc
[10] = system: habituated rats; assay: Locomotion in habituated rats, photocell activity boxes; conditions: habituated rats
Protocol: Motor activity experiments in both active and habituated rats were performed on male Sprague-Dawley rats (Charles River, Germany) weighing 280-320 g. Prior to testing, rats were housed in groups of four or five in ventilated Macrolon type IV cages for approximately one week.
Rats were housed in a normal daylight cycle and the experiments were carried out during daytime. […] During the following 5 minutes test drugs were injected, after which the rats were returned to the boxes for another 60 minutes. Five by five rows of photocell beams at floor level allowed a computer based-system to register horizontal activity. Motor activity is presented as accumulated number of unrepeated beam breaks, i.e. several consecutive breakings of one beam is counted as one beam break. The software was set to register behavior from the rats' first introduction into the arena until it was finally removed from the box, i.e. for 110 or 130 minutes.
Locomotion was measured as accumulated unrepeated beam breaks. […] This was followed by 60 minutes of registration. Data are calculated from a 30 minutes period, 5-35 minutes after injection, and plotted as means and SEM. […] Data were calculated from a 30 minutes period, 5-35 minutes after injection.
The effect of haloperidol on the locomotor stimulation was also studied in habituated rats (see FIG. 10). Locomotion was measured as accumulated unrepeated beam breaks. Rats were given haloperidol (0.05, 0.2, 0.5 mg/kg, sc) and were then allowed to habituate for 65 minutes. […] Data are calculated from a 30 minutes period, taken 5-35 minutes after injection, and plotted as means and SEM. N=4-5.

[11] = target: T4, human 5-HT1F receptor (Homo sapiens, UniProt P30939); assay: R-SAT assay 5-HT1F; type: cell-based; conditions: Table 3, 5-HT1F
T4 construct: expressed in transfected cells; host or cells: NIH/3T3
T4 sequence (P30939 1-366): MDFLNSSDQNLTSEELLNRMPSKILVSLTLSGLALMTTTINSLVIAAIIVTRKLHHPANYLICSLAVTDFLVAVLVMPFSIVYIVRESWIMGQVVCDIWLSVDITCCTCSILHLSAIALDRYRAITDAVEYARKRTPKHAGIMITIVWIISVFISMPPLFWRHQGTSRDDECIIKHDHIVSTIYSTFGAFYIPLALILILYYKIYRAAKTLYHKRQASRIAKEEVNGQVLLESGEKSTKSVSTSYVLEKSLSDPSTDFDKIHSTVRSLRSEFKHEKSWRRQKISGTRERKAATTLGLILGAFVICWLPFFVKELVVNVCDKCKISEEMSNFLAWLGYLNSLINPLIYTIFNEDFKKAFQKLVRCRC

[12] = target: T5, human 5-HT1E receptor (Homo sapiens, UniProt P28566); assay: R-SAT assay 5-HT1E; type: cell-based; conditions: Table 3, 5-HT1E
T5 construct: expressed in transfected cells; host or cells: NIH/3T3
T5 sequence (P28566 whole entry): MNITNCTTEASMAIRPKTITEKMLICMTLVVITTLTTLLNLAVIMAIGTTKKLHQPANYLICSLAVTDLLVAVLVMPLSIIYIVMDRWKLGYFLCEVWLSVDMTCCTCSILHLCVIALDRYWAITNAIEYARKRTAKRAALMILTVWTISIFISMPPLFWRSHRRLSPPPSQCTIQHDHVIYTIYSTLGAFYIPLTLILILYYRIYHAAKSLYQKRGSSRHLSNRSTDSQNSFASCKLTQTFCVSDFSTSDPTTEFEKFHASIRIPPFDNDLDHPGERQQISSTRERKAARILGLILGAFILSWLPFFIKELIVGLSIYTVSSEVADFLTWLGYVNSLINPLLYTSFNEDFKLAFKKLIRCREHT

[13] = percent response of reference ligand dopamine, mean ± SEM
[14] = percent response of reference ligand 5-HT, mean ± SEM
[15] = Table 2, percent response of reference ligand pergolide, mean ± SEM
[16] = Table 1, negative logarithm of EC50 in molar (M), NIH3T3 cells, mean ± SEM
[17] = reserpine-pretreated mice, M100907 0.1 and 1 mg/kg ip 30 minutes prior
[18] = haloperidol 0.05, 0.2 and 0.5 mg/kg sc
[19] = negative logarithm of EC50 in molar (M), HEK 293T cells, mean ± SEM
[20] = negative logarithm of EC50 in molar
[21] = percent response of reference BRL 54443

T1 sequence (P14416 1-414 isoform P14416-2): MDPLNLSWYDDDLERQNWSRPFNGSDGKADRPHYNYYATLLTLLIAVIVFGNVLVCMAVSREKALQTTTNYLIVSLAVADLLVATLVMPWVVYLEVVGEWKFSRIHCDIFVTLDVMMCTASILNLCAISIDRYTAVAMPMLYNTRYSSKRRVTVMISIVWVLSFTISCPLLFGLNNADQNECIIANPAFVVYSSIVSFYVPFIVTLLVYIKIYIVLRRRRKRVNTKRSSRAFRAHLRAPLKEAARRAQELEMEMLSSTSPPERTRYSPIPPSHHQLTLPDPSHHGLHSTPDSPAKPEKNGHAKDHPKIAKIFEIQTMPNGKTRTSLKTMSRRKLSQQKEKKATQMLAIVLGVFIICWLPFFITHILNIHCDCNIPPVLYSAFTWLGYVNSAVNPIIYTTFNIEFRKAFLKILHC

CCCN1CCCC(c2cccc(O)c2)C1 (single isomer, unassigned; (+)) [(+)-3-PPP, [3-(3-hydroxyphenyl)-N-n-propyl]piperidine]
agonist profile in BRET2 assays at D2 receptors [1]: partial agonists | BRET2 Eff % [1, 13]: 58 ± 2% | EC50 ([2]; negative logarithm of EC50 in molar (M), HEK 293T cells, mean ± SEM, read-out: PI Hydrolysis pEC50 (converted)): > 1e-05 M | PI Hydrolysis Eff (%) [2, 14]: 17 — % | R-SAT Eff(%) [3, 15]: 101 ± 8% | R-SAT Eff(%) [4]: 87 ± 26% | EC50 [4, 16]: 6.31e-06 M | agonist profile in GTPγS binding assays at D2 receptors [5]: full agonist | GTPγS Eff % [5, 13]: 102 ± 4% | EC50 ([6]; negative logarithm of EC50 in molar (M), HEK 293T cells, mean ± SEM, read-out: BRET2 pEC50 (converted)): > 0.0001 M | BRET2 Eff % [6, 14]: 42 ± 5%

NCCc1c[nH]cn1 [Histamine, reference compound]
Eff (%) [7]: 100%

Clc1ccc2c(c1)N=C(N1CCNCC1)c1ccccc1N2 [NDMC, 8-chloro-11-(1-piperazinyl)-5H-dibenzo[b,e][1,4]diazepine]
agonist profile in BRET2 assays at D2 receptors [1]: no agonist activity | BRET2 Eff % [1, 13]: 0 ± 0% | R-SAT Eff(%) [3]: 33 ± 2% | EC50 ([3]; Table 2, negative logarithm of EC50 in molar, NIH3T3 cells, mean ± SEM, read-out: R-SAT pEC50 (converted)): 12.6 nM | EC50 ([5]; negative logarithm of EC50 in molar, HEK293T membranes, mean ± SEM, read-out: GTPγS pEC50 (converted)): 39.8 nM | GTPγS Eff % [5, 13]: 18 ± 1%

NCCc1c[nH]c2ccc(O)cc12 [5-HT, 5-hydroxytryptamine]
PI Hydrolysis Eff (%) [2]: 100 ± 0% | BRET2 Eff % [6]: 100 ± 5%

COc1cc(CC(C)N)c(OC)cc1I.Cl (racemic) [DOI, (±)-1-(2,5-dimethoxy-4-iodophenyl)-2-aminopropane hydrochloride, reference compound]
head twitches produced during 5 minutes [8]: induces head twitches in the mouse | motor activity (distance moved, DM 1.5) ([9]; reserpine 10 mg/kg ip 20 h prior, test drug ip just prior to recording, first 30 minutes, vs reserpine only group): able to induce locomotor stimulation in reserpine-pretreated mice

CCCN[C@H]1CCc2nc(N)sc2C1 [Pramipexole, (6S)—N^6-propyl-4,5,6,7-tetrahydro-1,3-benzothiazole-2,6-diamine]
BRET2 Eff % [1]: 104 ± 1% | agonist profile in BRET2 assays at D2 receptors [1]: full agonist | R-SAT Eff(%) [3]: 84 ± 9% | R-SAT Eff(%) [4]: 48 ± 9% | GTPγS Eff % [5]: 87 ± 6% | BRET2 Eff % [6]: 52 ± 3%

CCCN1CCCC(c2cccc(O)c2)C1 (single isomer, unassigned; (-)) [(−)-3-PPP, [3-(3-hydroxyphenyl)-N-n-propyl]piperidine]
BRET2 Eff % [1, 13]: 2% and 2 ± 0% | PI Hydrolysis Eff (%) [2, 14]: 5 — % | R-SAT Eff(%) [3, 15]: 77% and 77 ± 4% | R-SAT Eff(%) [4]: 47 ± 12% | EC50 [4, 16]: 3.98e-06 M | agonist profile in GTPγS binding assays at D2 receptors [5]: strong partial agonists | GTPγS Eff % [5, 13]: 77 ± 4% | BRET2 Eff % [6, 14]: 10 ± 4%

CN1CCc2cc(Cl)c(O)cc2[C@H]2c3ccccc3CC[C@@H]21 [SCH39166]
antagonism of motor stimulation induced by (+)-OSU6162 250 μmol/kg ip ([9]; reserpine-pretreated mice): did not significantly influence the motor activation | antagonism of motor stimulation induced by (−)-OSU6162 250 μmol/kg ip ([9]; reserpine-pretreated mice): did not significantly influence the motor activation

COc1cccc([C@H](O)C2CCN(CCc3ccc(F)cc3)CC2)c1OC [M100907, (+)-(R)-1-[1-[2-(4-fluorophenyl)ethyl]piperidin-4-yl]-1-(2,3-dimethoxyphenyl)methanol]
reversal of (−)-OSU6162-induced locomotor stimulation ([10]; M100907 1 mg/kg ip, 15-35 minute interval): significant reversal | counteraction of locomotor stimulation induced by (+)-OSU6162 50 μmol/kg sc ([10]; M100907 0.5 and 1 mg/kg ip, 5-35 minute interval): significantly counteracted | effect of three doses on motor activity increase caused by 250 μmol/kg of (−)-OSU6162 ([9]; reserpine-pretreated mice, M100907 0.01, 0.1, 1 mg/kg ip 30 minutes prior): Only the 1 mg/kg dose significantly decreased motor activity | antagonism of locomotor stimulation induced by DOI 2.5 mg/kg ([9]; reserpine-pretreated mice, M100907 0.01, 0.1, 1 mg/kg ip 30 minutes prior, all doses significant): highly effective in antagonizing the locomotor stimulant effects of 2.5 mg/kg of DOI | reversal of locomotor stimulation induced by 125 μmol/kg of (+)-OSU6162 [9, 17]: effectively reversed | reversal of locomotor stimulation induced by 125 μmol/kg of (−)-OSU6162 [9, 17]: effectively reversed | antagonism of motor stimulation induced by (+)-OSU6162 250 μmol/kg ip ([9]; reserpine-pretreated mice): effectively antagonized this response | antagonism of motor stimulation induced by (−)-OSU6162 250 μmol/kg ip ([9]; reserpine-pretreated mice): effectively antagonized

O=C(CCCN1CCC(O)(c2ccc(Cl)cc2)CC1)c1ccc(F)cc1 [haloperidol]
antagonism of locomotor stimulation induced by (+)-OSU6162 50 μmol/kg sc [10, 18]: effectively antagonized the locomotor stimulation | antagonism of locomotor stimulation induced by (−)-OSU6162 50 μmol/kg sc [10, 18]: effectively antagonized the locomotor stimulation | antagonism of motor stimulation induced by (+)-OSU6162 250 μmol/kg ip ([9]; reserpine-pretreated mice): None of the dopaminergic antagonists, i e SCH23390 (0.3 mg/kg), raclopride (20 mg/kg) or haloperidol (1 mg/kg), could antagonize | antagonism of motor stimulation induced by (−)-OSU6162 250 μmol/kg ip ([9]; reserpine-pretreated mice): could not antagonize

CCN(CC)C(=O)N[C@H]1C[C@@H]2c3cccc4[nH]cc(c34)C[C@H]2N(C)C1 [(+)-Terguride]
BRET2 pEC50 ([1]; negative logarithm of EC50 in molar, HEK293T cells, mean ± SEM): 7.2 ± 0.1 | BRET2 Eff % [1, 13]: 8 ± 1% | BRET2 Eff % ([1]; percent response of reference ligand dopamine, mean ± SEM, listed as (+)-terguride): 8% | PI Hydrolysis pEC50 [2, 19]: 9.1 ± 0.2 | PI Hydrolysis Eff (%) [2, 14]: 52 ± 8% | R-SAT Eff(%) [3]: 92 ± 20% | R-SAT pEC50 ([3]; Table 2, negative logarithm of EC50 in molar, NIH3T3 cells, mean ± SEM): 11.1 ± 0.2 | R-SAT pEC50 [4, 16]: 9.8 ± 0.9 | R-SAT Eff(%) ([4]; Table 1, percent response of reference ligand 5-CT, mean ± SEM): 89 ± 13% | GTPγS pEC50 [5]: 9.3 ± 0.2 | agonist profile in GTPγS binding assays at D2 receptors [5]: strong partial agonists | GTPγS Eff % [5, 13]: 88 ± 8% | BRET2 pEC50 [6, 19]: 7.0 ± 0.0 | BRET2 Eff % [6, 14]: 42 ± 2%

CN1CCC(c2c[nH]c3ccc(O)cc23)CC1 [BRL 54443, reference compound]
pEC50 [11, 20]: 6.8 | Eff (%) [11, 21]: 100% | pEC50 [12, 20]: 6.7 | Eff (%) [12, 21]: 100%

CCN1CCC[C@H]1CNC(=O)c1c(O)c(Cl)cc(Cl)c1OC [raclopride]
antagonism of motor stimulation induced by (+)-OSU6162 250 μmol/kg ip ([9]; reserpine-pretreated mice): None of the dopaminergic antagonists, i e SCH23390 (0.3 mg/kg), raclopride (20 mg/kg) or haloperidol (1 mg/kg), could antagonize | antagonism of motor stimulation induced by (−)-OSU6162 250 μmol/kg ip ([9]; reserpine-pretreated mice): could not antagonize

Reference: patent US20130197032A1, “[…] COMPOUNDS FOR THE TREATMENT OF NEUROLOGICAL AND […] DISORDERS” (A. CARLSSON RESEARCH AB, priority 2010, published 2013)
